Experiment in all cases: relative viability (nuclei count vs DMSO), 5 days (fraction); higher = more cells survive
Compound in assay [1]: COC1=CC=C(C=C1)CN2C=CC3=C2C=C(C=C3)C(=O)NO + COc1cccc2cc(-c3nc([C@H]4CC[C@H](C(=O)O)CC4)n4ncnc(N)c34)[nH]c12 [OSI-027] (partner 0.5 µM)
Summed up:
(§1)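 Medians of duplicate plates are given as relative viability. That measure is the nuclei count in treated wells divided by the count in vehicle wells. Counts were taken on 4× images of lung cancer cell lines in 1536-well plates, 5 days after pin-tool dosing the day after seeding with one drug alone or a fixed anchor-drug dose plus five library-drug doses (not always all listed) in √10 steps.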

Compound in the assay “Veliparib + Luminespib”: C[C@]1(c2nc3c(C(N)=O)cccc3[nH]2)CCCN1 [Veliparib] + CCNC(=O)c1noc(-c2cc(C(C)C)c(O)cc2O)c1-c1ccc(CN2CCOCC2)cc1 [Luminespib] (partner 0.01 µM)
Summed up:
as §1

Compound in the assay “Veliparib + Lapatinib”: C[C@]1(c2nc3c(C(N)=O)cccc3[nH]2)CCCN1 [Veliparib] + CS(=O)(=O)CCNCc1ccc(-c2ccc3ncnc(Nc4ccc(OCc5cccc(F)c5)c(Cl)c4)c3c2)o1 [Lapatinib] (partner 2 µM)
Summed up: as §1

Compound in the assay “Veliparib + AZD7762”: C[C@]1(c2nc3c(C(N)=O)cccc3[nH]2)CCCN1 [Veliparib] + NC(=O)Nc1cc(-c2cccc(F)c2)sc1C(=O)N[C@H]1CCCNC1 [AZD7762] (partner 0.2 µM)
Summed up:
as §1

For the cell line NCI-H3122, the relative viability in assay [1] (first compound 0.253 µM) is 1.01; in assay [1] (first compound 0.8 µM) it was 0.945; in assay [1] (first compound 2.53 µM), 0.93; in assay [1] (first compound 8 µM), 0.908; in the assay with Veliparib + Luminespib (first compound 0.02 µM) it was 0.0959; with Veliparib + Luminespib (first compound 0.06325 µM) it was 0.0908. For the same cell line, the relative viability came to 0.097 in the assay with Veliparib + Luminespib (first compound 0.2 µM); 0.0912 with Veliparib + Luminespib (first compound 0.6325 µM); 0.0755 with Veliparib + Luminespib (first compound 2 µM); 0.931 with Veliparib + Lapatinib (first compound 0.02 µM); 1.05 with Veliparib + Lapatinib (first compound 0.06325 µM); 0.995 in the assay with Veliparib + Lapatinib (first compound 0.2 µM). The relative viability with Veliparib + Lapatinib (first compound 0.6325 µM) is 0.994; with Veliparib + Lapatinib (first compound 2 µM), 1.07; in the assay with Veliparib + AZD7762 (first compound 0.02 µM), 0.937; with Veliparib + AZD7762 (first compound 0.06325 µM), 1.01; with Veliparib + AZD7762 (first compound 0.2 µM) it was 0.986; with Veliparib + AZD7762 (first compound 0.6325 µM) it was 0.971. Further, the relative viability with Veliparib + AZD7762 (first compound 2 µM) was 1.01.
For the cell line PC-3 [JPC-3], the relative viability was determined as 0.766 in assay [1] (first compound 0.08 µM); 0.781 in assay [1] (first compound 0.253 µM); 0.726 in assay [1] (first compound 0.8 µM); 0.813 in assay [1] (first compound 2.53 µM); 0.761 in assay [1] (first compound 8 µM); 0.65 with Veliparib + Luminespib (first compound 0.02 µM). The relative viability is 0.711 with Veliparib + Luminespib (first compound 0.06325 µM); 0.753 with Veliparib + Luminespib (first compound 0.2 µM); 0.662 in the assay with Veliparib + Luminespib (first compound 0.6325 µM); 0.66 in the assay with Veliparib + Luminespib (first compound 2 µM); 0.422 with Veliparib + Lapatinib (first compound 0.02 µM); 0.397 in the assay with Veliparib + Lapatinib (first compound 0.06325 µM). The relative viability in the assay with Veliparib + Lapatinib (first compound 0.2 µM) is 0.454; with Veliparib + Lapatinib (first compound 0.6325 µM), 0.476; with Veliparib + Lapatinib (first compound 2 µM) it was 0.477; with Veliparib + AZD7762 (first compound 0.02 µM), 0.82; with Veliparib + AZD7762 (first compound 0.2 µM) it was 0.875; with Veliparib + AZD7762 (first compound 0.6325 µM), 0.898. In addition, the relative viability with Veliparib + AZD7762 (first compound 2 µM) worked out at 0.773.
For PC-14, the relative viability in assay [1] (first compound 0.08 µM) worked out at 0.89; in assay [1] (first compound 0.253 µM), 0.87; in assay [1] (first compound 0.8 µM) it was 0.739; in assay [1] (first compound 2.53 µM), 0.857; in assay [1] (first compound 8 µM), 0.658; in the assay with Veliparib + Luminespib (first compound 0.06325 µM), 0.147. Also, the relative viability worked out at 0.198 with Veliparib + Luminespib (first compound 0.2 µM); 0.151 with Veliparib + Luminespib (first compound 0.6325 µM); 0.145 with Veliparib + Luminespib (first compound 2 µM); 0.279 with Veliparib + Lapatinib (first compound 0.02 µM); 0.367 in the assay with Veliparib + Lapatinib (first compound 0.06325 µM); 0.323 with Veliparib + Lapatinib (first compound 0.2 µM). Moreover, the relative viability with Veliparib + Lapatinib (first compound 0.6325 µM) came out at 0.28; with Veliparib + Lapatinib (first compound 2 µM) it was 0.315; with Veliparib + AZD7762 (first compound 0.02 µM) it was 0.357; in the assay with Veliparib + AZD7762 (first compound 0.06325 µM), 0.313; in the assay with Veliparib + AZD7762 (first compound 0.2 µM), 0.335; with Veliparib + AZD7762 (first compound 0.6325 µM) it was 0.385. Also, the relative viability with Veliparib + AZD7762 (first compound 2 µM) was determined as 0.327.
In the case of RERF-LC-KJ, the relative viability in assay [1] (first compound 0.08 µM) is 0.589; in assay [1] (first compound 0.253 µM), 0.594; in assay [1] (first compound 0.8 µM), 0.662; in assay [1] (first compound 2.53 µM) it was 0.617; in assay [1] (first compound 8 µM), 0.495; with Veliparib + Luminespib (first compound 0.02 µM), 1.26. For the same cell line, the relative viability was found to be 1.25 with Veliparib + Luminespib (first compound 0.06325 µM); 1.2 with Veliparib + Luminespib (first compound 0.2 µM); 1.21 with Veliparib + Luminespib (first compound 0.6325 µM); 1.29 with Veliparib + Luminespib (first compound 2 µM); 0.839 with Veliparib + Lapatinib (first compound 0.02 µM); 0.82 in the assay with Veliparib + Lapatinib (first compound 0.06325 µM). The relative viability with Veliparib + Lapatinib (first compound 0.2 µM) amounted to 0.853; with Veliparib + Lapatinib (first compound 0.6325 µM) it was 0.813; with Veliparib + Lapatinib (first compound 2 µM), 0.854; with Veliparib + AZD7762 (first compound 0.02 µM), 1.07; with Veliparib + AZD7762 (first compound 0.06325 µM), 0.896; with Veliparib + AZD7762 (first compound 0.2 µM) it was 0.999. Moreover, the relative viability was found to be 0.933 in the assay with Veliparib + AZD7762 (first compound 0.6325 µM) and 1.03 with Veliparib + AZD7762 (first compound 2 µM).

The record behind these values is the supplement of paper PMC10307832.
